A short description of series [1]: Absorbance of the dyes (absorption maximum, extinction coefficient). The format is physicochemical.
The nature of series [2]: Fluorescence emission maximum of the dyes. The format is physicochemical.

Turning to `CCOC(=O)C1(C(=O)O)CC(/C=C/C2=[N+](CCCS(=O)(=O)[O-])c3ccc(S(=O)(=O)O)cc3C2(C)C)=CC(=C/C=C2/N(CCCS(=O)(=O)O)c3ccc(S(=O)(=O)O)cc3C2(C)C)/C1` (stereo not drawn) [Compound 1b], in series [1], the “% absorption of the dye at 278 nm with respect to its abs. at λmax, 750 nm” value is listed as 4%. This compound yielded an Abs in series [1] (1x PBS) of 749 nm. The “ε (extinction coefficient of the dye)” value in series [1] (1x PBS, in M-1 cm-1 (unit assumed)) is given as 240,000. In addition, the Em in series [2] (1x PBS) is on record as 771 nm.
Consider `CCOC(=O)C1(C(=O)NCCS(=O)(=O)O)CC(/C=C/C2=[N+](CCCS(=O)(=O)[O-])c3ccc(S(=O)(=O)O)cc3C2(C)C)=CC(=C/C=C2/N(CCCS(=O)(=O)O)c3ccc(S(=O)(=O)O)cc3C2(C)C)/C1` (stereo not drawn) [Compound 1c], for which the Abs. max in series [1] (in water) is recorded as 749 nm.
The compound `CC1(C)C(/C=C/C2=CC(=C/C=C3/N(CCCS(=O)(=O)O)c4ccc(S(=O)(=O)O)cc4C3(C)C)/CC(C(=O)O)(C(=O)NCCS(=O)(=O)O)C2)=[N+](CCCS(=O)(=O)[O-])c2ccc(S(=O)(=O)O)cc21` (stereo not drawn) [Compound 1d] yielded an Abs. max in series [1] (in water/1× PBS) of 751 nm. Moreover, the “Em. Max” value in series [2] (in water/1× PBS) is 771 nm.
`CC1(C)C(/C=C/C2=CC(=C/C=C3/N(CCCS(=O)(=O)O)c4ccc(S(=O)(=O)O)cc4C3(C)C)/CC(C(=O)NCCCCCC(=O)O)(C(=O)NCCS(=O)(=O)O)C2)=[N+](CCCS(=O)(=O)[O-])c2ccc(S(=O)(=O)O)cc21` (stereo not drawn) [Compound 1f] yielded an Abs. max in series [1] (in water/1× PBS) of 751 nm. For the same compound, the “Em. Max” value in series [2] (in water/1× PBS) came to 771 nm.
For the compound `CCN1/C(=C/C=C2C=C(/C=C/C3=[N+](CC)c4ccc5c(S(=O)(=O)[O-])cc(S(=O)(=O)O)cc5c4C3(C)C)CC(C(=O)NCCCCCC(=O)O)(C(=O)NCCS(=O)(=O)O)C/2)C(C)(C)c2c1ccc1c(S(=O)(=O)O)cc(S(=O)(=O)O)cc21` (stereo not drawn) [Compound 4m], the results for the Abs. max in series [1] (MeOH) and in series [1] (in water) were 780 nm and 775 nm, respectively. Also, in series [2] (water), the “Em. Max” value came to 795 nm.

The record behind these values is US11193932B2, “4,4-disubstituted cyclohexyl bridged heptamethine cyanine dyes and uses thereof” (VisEn Medical, Inc., priority 2013, dated 2021).
